Test results reported in US20070128217A1 (priority 2003, published 2007).

Experiments:
[1] = tested on: control sera (pooled serum of ten healthy LUMC hospital workers; commercial negative donor pooled serum from the Dutch bloodbank); assay type: binding, human; design: Binding of Control serum LUMC to linear peptides / Binding of Control serum Blood-bank to linear peptides / Binding of Control serum LUMC to looped peptides / Binding of Control Serum Blood-Bank to Looped peptides / Binding of Control serum LUMC to linear peptides of the protein M of SARS-CoV Urbani / Binding of Control serum Blood-bank to linear peptides of the protein M of SARS-CoV Urbani / Binding of Control serum LUMC to looped peptides of the protein M of SARS-CoV Urbani / Binding of Control Serum Blood-Bank to Looped peptides of the protein M of SARS-CoV Urbani: unit not given here
[2] = tested on: antibodies in sera from SARS patients (sera 1a, 1b, 2, 6, 37, 62, London, SARS-yellow, SARS-green); assay type: binding, human; design: Binding of serum 6 to linear peptides of protein X1 of SARS-CoV Urbani / Binding of serum 37 to linear peptides of protein X1 of SARS-CoV Urbani / Binding of serum 6 to looped/cyclic peptide (PEPSCAN-ELISA) / Binding of serum 37 to looped/cyclic peptide (PEPSCAN-ELISA) / Binding of serum 37 to looped/cyclic peptides of protein X1 of SARS-CoV Urbani / Binding of serum 6 to linear peptides of protein X2 / Binding of serum 37 to linear peptides of protein X2 / Binding of serum 37 to looped/cyclic peptides of protein X2 of SARS-CoV Urbani / Binding of serum 6 to linear peptides of protein M of SARS-CoV Urbani / Binding of serum 37 to linear peptides of protein M of SARS-CoV Urbani / Binding of serum 6 to looped/cyclic peptides of protein M of SARS-CoV Urbani / Binding of serum 37 to looped/cyclic peptides of protein M of SARS-CoV Urbani / Binding of serum 6 to linear peptides of protein X3 of SARS-CoV Urbani / Binding of serum 37 to linear peptides of protein X3 of SARS-CoV Urbani / Binding of serum 37 to looped/cyclic peptides of protein X3 of SARS-CoV Urbani / Binding of serum 6 to linear peptides of protein X4 of SARS-CoV Urbani / Binding of serum 37 to linear peptides of protein X4 of SARS-CoV Urbani / Binding of serum 37 to looped/cyclic peptides of protein X4 of SARS-CoV Urbani / Binding of serum 6 to linear peptides of protein X5 of SARS-CoV Urbani / Binding of serum 37 to linear peptides of protein X5 of SARS-CoV Urbani / Binding of serum 37 to looped/cyclic peptides of protein X5 of SARS-CoV Urbani / Binding of serum 6 to linear peptides of protein N of SARS-CoV Urbani / Binding of serum 37 to linear peptides of protein N of SARS-CoV Urbani / Binding of serum 6 to linear peptide (PEPSCAN-ELISA) / Binding of serum 1a to looped/cyclic peptides of protein N of SARS-CoV Urbani / Binding of serum 1b to looped/cyclic peptides of protein N of SARS-CoV Urbani / Binding of serum 2 to looped/cyclic peptides of protein N of SARS-CoV Urbani / Binding of serum 6 to looped/cyclic peptides of protein N of SARS-CoV Urbani / Binding of serum 37 to looped/cyclic peptides of protein N of SARS-CoV Urbani / Binding of serum 62 to looped/cyclic peptides of protein N of SARS-CoV Urbani / Binding of serum London to looped/cyclic peptides of protein N of SARS-CoV Urbani / Binding of serum SARS-green to looped/cyclic peptides of protein N of SARS-CoV Urbani: unit not given here
[3] = tested on: rabbit serum obtained by immunizing a rabbit with the SARS-CoV strain Frankfurt 1; assay type: binding; design: Binding of a rabbit serum to linear peptides / Binding of a rabbit serum to looped peptides / Rabbit serum linear peptides / Rabbit serum looped peptides / Binding of a rabbit serum to linear peptides of protein N of SARS-CoV Urbani (Rabbit serum linear peptides) / Binding of a rabbit serum to looped/cyclic peptides of protein N of SARS-CoV Urbani (Rabbit serum looped peptides): unit not given here

## FQVTIAEILIIIMRT
[1]
  Binding of Control Serum Blood-Bank to Looped peptides of the protein X3 of SARS-CoV Urbani: 0.7
  Binding of Control serum Blood-bank to linear peptides of the protein X3 of SARS-CoV Urbani: 0.8
  Binding of Control serum LUMC to linear peptides of the protein X3 of SARS-CoV Urbani: 0.4
  Binding of Control serum LUMC to looped peptides of the protein X3 of SARS-CoV Urbani: 0.6
[2]
  Binding of serum 1a to linear peptides of protein X3 of SARS-CoV Urbani: 0.7
  Binding of serum 1a to looped/cyclic peptides of protein X3 of SARS-CoV Urbani: 0.5
  Binding of serum 1b to linear peptides of protein X3 of SARS-CoV Urbani: 0.3
  Binding of serum 1b to looped/cyclic peptides of protein X3 of SARS-CoV Urbani: 0.2
  Binding of serum 2 to linear peptides of protein X3 of SARS-CoV Urbani: 0.6
  Binding of serum 2 to looped/cyclic peptides of protein X3 of SARS-CoV Urbani: 0.5
  Binding of serum 6 to linear peptides of protein X3 of SARS-CoV Urbani: 0.6
  Binding of serum 6 to looped/cyclic peptides of protein X3 of SARS-CoV Urbani: 0.3
  Binding of serum 37 to linear peptides of protein X3 of SARS-CoV Urbani: 0.3
  Binding of serum 37 to looped/cyclic peptides of protein X3 of SARS-CoV Urbani: 0.6
  Binding of serum 62 to linear peptides of protein X3 of SARS-CoV Urbani: 0.5
  Binding of serum 62 to looped/cyclic peptides of protein X3 of SARS-CoV Urbani: 0.4
  Binding of serum London to linear peptides of protein X3 of SARS-CoV Urbani: 0.7
  Binding of serum London to looped/cyclic peptides of protein X3 of SARS-CoV Urbani: 0.2
  Binding of serum SARS-green to linear peptides of protein X3 of SARS-CoV Urbani: 0.5
  Binding of serum SARS-green to looped/cyclic peptides of protein X3 of SARS-CoV Urbani: 0.2
  Binding of serum SARS-yellow to linear peptides of protein X3 of SARS-CoV Urbani: 1.1
  Binding of serum SARS-yellow to looped/cyclic peptides of protein X3 of SARS-CoV Urbani: 0.6
[3]
  Rabbit serum linear peptides: 0.2
  Rabbit serum looped peptides: 0.3

## FVLAAVYRINWVTGG
[1]
  Binding of Control Serum Blood-Bank to Looped peptides of the protein M of SARS-CoV Urbani: 0.6
  Binding of Control serum Blood-bank to linear peptides of the protein M of SARS-CoV Urbani: 0.8
  Binding of Control serum LUMC to linear peptides of the protein M of SARS-CoV Urbani: 0.5
  Binding of Control serum LUMC to looped peptides of the protein M of SARS-CoV Urbani: 0.8
[2]
  Binding of serum 1a to linear peptides of protein M of SARS-CoV Urbani: 0.9
  Binding of serum 1a to looped/cyclic peptides of protein M of SARS-CoV Urbani: 0.7
  Binding of serum 1b to linear peptides of protein M of SARS-CoV Urbani: 0.7
  Binding of serum 1b to looped/cyclic peptides of protein M of SARS-CoV Urbani: 0.6
  Binding of serum 2 to linear peptides of protein M of SARS-CoV Urbani: 0.6
  Binding of serum 2 to looped/cyclic peptides of protein M of SARS-CoV Urbani: 0.5
  Binding of serum 6 to linear peptides of protein M of SARS-CoV Urbani: 0.3
  Binding of serum 6 to looped/cyclic peptides of protein M of SARS-CoV Urbani: 0.8
  Binding of serum 37 to linear peptides of protein M of SARS-CoV Urbani: 0.8
  Binding of serum 37 to looped/cyclic peptides of protein M of SARS-CoV Urbani: 0.5
  Binding of serum 62 to linear peptides of protein M of SARS-CoV Urbani: 0.8
  Binding of serum 62 to looped/cyclic peptides of protein M of SARS-CoV Urbani: 0.6
  Binding of serum London to linear peptides of protein M of SARS-CoV Urbani: 0.3
  Binding of serum London to looped/cyclic peptides of protein M of SARS-CoV Urbani: 0.3
  Binding of serum SARS-green to linear peptides of protein M of SARS-CoV Urbani: 0.3
  Binding of serum SARS-green to looped/cyclic peptides of protein M of SARS-CoV Urbani: 0.3
  Binding of serum SARS-yellow to linear peptides of protein M of SARS-CoV Urbani: 0.1
  Binding of serum SARS-yellow to looped/cyclic peptides of protein M of SARS-CoV Urbani: 0.4
[3]
  Rabbit serum linear peptides: 0.5
  Rabbit serum looped peptides: 0.0

## GFAAYNRYRIGNYKL
[1]
  Binding of Control Serum Blood-Bank to Looped peptides of the protein M of SARS-CoV Urbani: 0.5
  Binding of Control serum Blood-bank to linear peptides of the protein M of SARS-CoV Urbani: 0.7
  Binding of Control serum LUMC to linear peptides of the protein M of SARS-CoV Urbani: 0.8
  Binding of Control serum LUMC to looped peptides of the protein M of SARS-CoV Urbani: 0.6
[2]
  Binding of serum 1a to linear peptides of protein M of SARS-CoV Urbani: 0.6
  Binding of serum 1a to looped/cyclic peptides of protein M of SARS-CoV Urbani: 0.7
  Binding of serum 1b to linear peptides of protein M of SARS-CoV Urbani: 0.4
  Binding of serum 1b to looped/cyclic peptides of protein M of SARS-CoV Urbani: 0.2
  Binding of serum 2 to linear peptides of protein M of SARS-CoV Urbani: 0.4
  Binding of serum 2 to looped/cyclic peptides of protein M of SARS-CoV Urbani: 0.6
  Binding of serum 6 to linear peptides of protein M of SARS-CoV Urbani: 0.8
  Binding of serum 6 to looped/cyclic peptides of protein M of SARS-CoV Urbani: 0.7
  Binding of serum 37 to linear peptides of protein M of SARS-CoV Urbani: 0.5
  Binding of serum 37 to looped/cyclic peptides of protein M of SARS-CoV Urbani: 0.6
  Binding of serum 62 to linear peptides of protein M of SARS-CoV Urbani: 0.5
  Binding of serum 62 to looped/cyclic peptides of protein M of SARS-CoV Urbani: 0.5
  Binding of serum London to linear peptides of protein M of SARS-CoV Urbani: 0.4
  Binding of serum London to looped/cyclic peptides of protein M of SARS-CoV Urbani: 0.2
  Binding of serum SARS-green to linear peptides of protein M of SARS-CoV Urbani: 0.3
  Binding of serum SARS-green to looped/cyclic peptides of protein M of SARS-CoV Urbani: 0.2
  Binding of serum SARS-yellow to linear peptides of protein M of SARS-CoV Urbani: 0.1
  Binding of serum SARS-yellow to looped/cyclic peptides of protein M of SARS-CoV Urbani: 0.5
[3]
  Rabbit serum linear peptides: 0.2
  Rabbit serum looped peptides: 0.5

## GFLFLAWIMLLQFAY
[1]
  Binding of Control Serum Blood-Bank to Looped peptides of the protein M of SARS-CoV Urbani: 0.6
  Binding of Control serum Blood-bank to linear peptides of the protein M of SARS-CoV Urbani: 0.7
  Binding of Control serum LUMC to linear peptides of the protein M of SARS-CoV Urbani: 0.3
  Binding of Control serum LUMC to looped peptides of the protein M of SARS-CoV Urbani: 0.7
[2]
  Binding of serum 1a to linear peptides of protein M of SARS-CoV Urbani: 0.7
  Binding of serum 1a to looped/cyclic peptides of protein M of SARS-CoV Urbani: 0.6
  Binding of serum 1b to linear peptides of protein M of SARS-CoV Urbani: 0.5
  Binding of serum 1b to looped/cyclic peptides of protein M of SARS-CoV Urbani: 0.6
  Binding of serum 2 to linear peptides of protein M of SARS-CoV Urbani: 0.5
  Binding of serum 2 to looped/cyclic peptides of protein M of SARS-CoV Urbani: 0.5
  Binding of serum 6 to linear peptides of protein M of SARS-CoV Urbani: 0.3
  Binding of serum 6 to looped/cyclic peptides of protein M of SARS-CoV Urbani: 0.6
  Binding of serum 37 to linear peptides of protein M of SARS-CoV Urbani: 0.7
  Binding of serum 37 to looped/cyclic peptides of protein M of SARS-CoV Urbani: 0.6
  Binding of serum 62 to linear peptides of protein M of SARS-CoV Urbani: 0.7
  Binding of serum 62 to looped/cyclic peptides of protein M of SARS-CoV Urbani: 0.6
  Binding of serum London to linear peptides of protein M of SARS-CoV Urbani: 0.3
  Binding of serum London to looped/cyclic peptides of protein M of SARS-CoV Urbani: 0.2
  Binding of serum SARS-green to linear peptides of protein M of SARS-CoV Urbani: 0.2
  Binding of serum SARS-green to looped/cyclic peptides of protein M of SARS-CoV Urbani: 0.3
  Binding of serum SARS-yellow to linear peptides of protein M of SARS-CoV Urbani: 0.0
  Binding of serum SARS-yellow to looped/cyclic peptides of protein M of SARS-CoV Urbani: 0.4
[3]
  Rabbit serum linear peptides: 0.3
  Rabbit serum looped peptides: 0.4
